Source: US10653705B2, “Applications for estrone in preparing anti-ovarian cancer and/or breast cancer products” (SHANGHAI JIAO TONG UNIVERSITY, priority 2015, dated 2020)
pEC50, pIC50: −log10 of the molar value.

Key:
Format in all cases: cell-based
[1] = tested on: HCC1395 breast cancer cells; test: CellTiter-Glo luminescent cell viability assay, HCC1395 breast cancer cells; conditions: Homo sapiens, 72 hours
Description: In example 1, CELLTITER-GLO was used to test estrone against ovarian cancer and/or breast cancer m) A cell counter was used to count the number of suspended cells and adjust the cell suspension to an appropriate density in the plate to carry out cell plating experiments. 2. The drug analyte estrone was prepared and administered (200× final concentration): a) DMSO was used to dilute the analyte estrone to 20 mM for use. b) 79 μL of the 20 mM analyte prepared in step a) was added to the first well in the first row of the dilution plate, and then 54 μL of DMSO solution was added to the second through ninth wells of the first row. […] The final concentrations (μM) of the analyte drug in wells 2-10 in FIG. 1 are, in order: 100, 31.64557, 10.01442, 3.16912, 1.002886, 0.317369, 0.100433, 0.031783, 0.010058; B. CELLTITER-GLO Luminescent Cell Viability Assay System c) 100 μl of CellTiter-Glo reagent (prepared as described in 1 above) was added to all drug screening plates and mixed evenly. d) It was thoroughly oscillated in a 96-well microplate oscillator for 2 minutes to allow the cells to undergo full lysis. e) It was stored away from light at room temperature for 15 minutes before carrying out luminescent signal detection to ensure signal stability. f) An EnSpire multi-function plate reader was used at 570 nm to read the luminescent signals. g) Data was processed and analyzed. […]

[2] = tested on: NCI-H460 large-cell lung cancer cells; test: CellTiter-Glo luminescent cell viability assay, NCI-H460 large-cell lung cancer cells; conditions: Homo sapiens, 72 hours
[3] = tested on: NCI-H1437 human lung cancer cells; test: CellTiter-Glo luminescent cell viability assay, NCI-H1437 human lung cancer cells; conditions: 72 hours
[4] = tested on: SKOV-3 ovarian cancer cells; test: CellTiter-Glo luminescent cell viability assay, SKOV-3 ovarian cancer cells
Source text: In example 1, CELLTITER-GLO was used to test estrone against ovarian cancer and/or breast cancer m) A cell counter was used to count the number of suspended cells and adjust the cell suspension to an appropriate density in the plate to carry out cell plating experiments. SKOV-3 cells were handled as described above, and a SKOV-3 96-well cell culture plate was obtained. The complete medium for SKOV-3 cells was McCOY'S 5A (a live product), Cat #16600082, with a cells/well density of 12000. 2. The drug analyte estrone was prepared and administered (200× final concentration): a) DMSO was used to dilute the analyte estrone to 20 mM for use. b) 79 μL of the 20 mM analyte prepared in step a) was added to the first well in the first row of the dilution plate, and then 54 μL of DMSO solution was added to the second through ninth wells of the first row. […] The final concentrations (μM) of the analyte drug in wells 2-10 in FIG. 1 are, in order: 100, 31.64557, 10.01442, 3.16912, 1.002886, 0.317369, 0.100433, 0.031783, 0.010058; B. CELLTITER-GLO Luminescent Cell Viability Assay System a) Before testing, the SKOV-3 96-well drug screening plate described in 3 above was stabilized to room temperature for 20-30 minutes. c) 100 μl of CellTiter-Glo reagent (prepared as described in 1 above) was added to all drug screening plates and mixed evenly. d) It was thoroughly oscillated in a 96-well microplate oscillator for 2 minutes to allow the cells to undergo full lysis. e) It was stored away from light at room temperature for 15 minutes before carrying out luminescent signal detection to ensure signal stability. f) An EnSpire multi-function plate reader was used at 570 nm to read the luminescent signals. g) Data was processed and analyzed.

- pIC50 [1]: 4.17
- pEC50 ([1]; FIG. 3): 1.13
- pIC50 [2]: ≤ 4.00
- pIC50 [3]: ≤ 4.00
- pIC50 ([4]; Homo sapiens, SK-OV-3, SKOV-3 cells, 72 hours, CellTiter-Glo): 4.67
- pEC50 ([4]; Homo sapiens, SK-OV-3, SKOV-3 cells, 72 hours, CellTiter-Glo, FIG. 2): 4.78
SMILES: C[C@]12CC[C@@H]3c4ccc(O)cc4CC[C@H]3[C@@H]1CCC2=O [Estrone]
- effect on the proliferation of ovarian cancer cells ([4]; compared with the lung cancer cell lines of Table 1): specific inhibitory effect
